Data set [1] addresses T1, α-chymotrypsin (Bos taurus, UniProt P00766, DEL14-15/DEL147-148).
T1 construct: purchased Sigma-Aldrich (Steinheim, Germany)
The data set is described as follows: Resistance to chymotryptic cleavage. Type of data set: in vitro ADME, bovine pancreas. The note with it: peptide 10 μg/ml, 0.1 mol/L TRIS-HCl pH 7.8, urea 120 mg/mL, α-chymotrypsin E:P 1:200, 24 h, 37 °C. How it is done: Preliminary experiments using a combination of pepsin and trypsin/chymotrypsin (PTC) for enzymatic hydrolysis were performed with the 33-mer. This PTC hydrolysate of the 33-mer was analysed by untargeted LC-MS/MS followed by data evaluation using the MS/MS ions search module of the Mascot software based on the NCBI database (National Library of Medicine, Bethesda, MD, USA). In addition to the original 33-mer, the truncated forms after N-terminal removal of leucine resulting in a 32-mer (m/z 950.0, 4+ and m/z 1266.3, 3+) and pyro-32-mer (m/z 945.7, 4+ and m/z 1260.6, 3+) were identified, but no 30-mer (m/z 889.7, 4+ and m/z 1185.9, 3+) after potential removal of N-terminal LQL. The ratio 33-mer/32-mer/pyro-32-mer was about 12/76/12. To see whether cleavage of the N-terminal leucine could be minimised, only chymotrypsin was used for further experiments. Therefore, the 33-mer peptide was incubated with chymotrypsin using exactly the same conditions as described for the samples to check its resistance towards cleavage, because it contains two potential chymotryptic cleavage sites at positions L1 and L3. […] Full MS/MS scans were also done for the chymotryptic hydrolysates of the albumin/globulin and gliadin fractions obtained from wheat cv. MJO. […] This is consistent with the original report by Shan et al.[4] who only observed pepsin-catalysed cleavage of the N-terminal leucine. Additionally, no analyte loss is expected to take place during sample preparation, which involves the removal of albumins/globulins.
First, flours (150–200 mg) were defatted with pentane/ethanol (95/5, v/v; 2 × 2.0 mL)[40]. The gliadin fractions from the different defatted flours were extracted as described above. […] The obtained peptide mixture was dried using a vacuum centrifuge (40 °C, 6 h, 800 Pa), re-dissolved in FA (0.1%, v/v, 500 μL), filtered (0.45 μm) and analysed by targeted LC-MS/MS. […] MJO, which were all analysed by untargeted LC-MS/MS. […]

Data set [2] concerns pepsin and trypsin/chymotrypsin (PTC). The data set can be described thus: Enzymatic hydrolysis of the 33-mer with pepsin and trypsin/chymotrypsin (PTC). The data set is classed as in vitro ADME. The note with it: untargeted LC-MS/MS. As to the method:
Preliminary experiments using a combination of pepsin and trypsin/chymotrypsin (PTC) for enzymatic hydrolysis were performed with the 33-mer. This PTC hydrolysate of the 33-mer was analysed by untargeted LC-MS/MS followed by data evaluation using the MS/MS ions search module of the Mascot software based on the NCBI database (National Library of Medicine, Bethesda, MD, USA). In addition to the original 33-mer, the truncated forms after N-terminal removal of leucine resulting in a 32-mer (m/z 950.0, 4+ and m/z 1266.3, 3+) and pyro-32-mer (m/z 945.7, 4+ and m/z 1260.6, 3+) were identified, but no 30-mer (m/z 889.7, 4+ and m/z 1185.9, 3+) after potential removal of N-terminal LQL. The ratio 33-mer/32-mer/pyro-32-mer was about 12/76/12. To see whether cleavage of the N-terminal leucine could be minimised, only chymotrypsin was used for further experiments. […]
First, flours (150–200 mg) were defatted with pentane/ethanol (95/5, v/v; 2 × 2.0 mL)[40]. […] The obtained peptide mixture was dried using a vacuum centrifuge (40 °C, 6 h, 800 Pa), re-dissolved in FA (0.1%, v/v, 500 μL), filtered (0.45 μm) and analysed by targeted LC-MS/MS. […] MJO, which were all analysed by untargeted LC-MS/MS. […]

In data set [3] the test system is intestinal peptidases. Particulars: 5 (Shan et al. 2002); cited from earlier work. The source says: All gluten protein fractions, namely the alcohol-soluble prolamins and the insoluble glutelins, contain CD-active epitopes. The prolamin fraction is particularly rich in proline and glutamine and the numerous proline residues lead to a high resistance to complete proteolytic digestion by human gastric, pancreatic, and brushborder enzymes. […] The 33-mer is widely ca ...

For data set [4], the system named is pepsin and trypsin/chymotrypsin (PTC). The data set is described as follows: pepsin (in 0.01 mol/L HCl, pH 2.0, E:P ratio of 1:25) followed by trypsin and α-chymotrypsin (in 0.05 mol/L phosphate buffer, pH 6.5, E:P ratio of 1:200). The note with it: porcine gastric mucosa (pepsin); bovine pancreas (trypsin, α-chymotrypsin), 37 °C, up to 60 min (pepsin) followed by 120 min (trypsin and α-chymotrypsin).

Data set [5] concerns α-chymotrypsin. The data set can be described thus: α-chymotrypsin (E:P ratio of 1:200) in TRIS-HCl-buffer (0.1 mol/L TRIS-HCl, pH 7.8, urea 120 mg/mL). Particulars: bovine pancreas, 37 °C, up to 24 h.
The test system of data set [6] is tissue transglutaminase (TG2). The data set is described as follows: tissue transglutaminase (TG2). The note with it: cited from earlier work.
Data set [7] deals with intestinal peptidases. The data set is described as follows: intestinal peptidases. The note with it: cited from earlier work.
The next data set relates to pepsin. The data set can be described thus: pepsin. Particulars: cited from earlier work.

“And” between values parts separate entries of the source, which are not always exact repeats. Equal entries are not always repeated. No end group written: not given here.

“LQLQP*FPQPQLPYPQPQLPYPQPQLPYPQ*PQ*P*F [*33-mer, [13C28]- and [15N4]-labelled 33-mer peptide used as isotopically labelled internal standard]”: on α-chymotrypsin [1] (full MS/MS scans), the “stability towards chymotryptic cleavage, looking for *32-mer, pyro-*32-mer and *30-mer” value was “stable under the conditions applied”.
Regarding “LQLQPFPQPQLPYPQPQLPYPQPQLPYPQPQPF [33-mer]”, the “ratio 33-mer/32-mer/pyro-32-mer in the PTC hydrolysate” value in data set [2] (pepsin in 0.01 mol/L HCl, pH 2.0, 60 min, 37 °C, E:P 1:25, then trypsin and α-chymotrypsin in 0.05 mol/L phosphate buffer, pH 6.5, 120 min, 37 °C, E:P 1:200, Mascot, preliminary experiments) is listed as “about 12/76/12”. Besides, the “30-mer after potential removal of N-terminal LQL in the PTC hydrolysate” value in data set [2] (same PTC conditions as E1) is “no 30-mer”. In the data set on intestinal peptidases [3], the “cleavage by intestinal peptidases” value is listed as “resistant to cleavage by intestinal peptidases”. For the same substance, the “forms detected after incubation with chymotrypsin, full MS/MS scans of the m/z of 32-mer, pyro-32-mer and 30-mer” value on α-chymotrypsin [1] (full MS/MS scans, target mass ± 1) is “only the intact 33-mer”. The “truncated forms after incubation with chymotrypsin, untargeted LC-MS/MS” value on α-chymotrypsin [1] (untargeted LC-MS/MS) is listed as “no truncated forms”.
On to LQLQPFPQPQLPYPQPQLPYPQPQLPYPQPQPF, for which the cleaved bond result (in data set [4]; in the data set on pepsin) was “leucine1-Q” in each case. Moreover, the fragment found result in data set [4] is “pyro-32-mer”; in data set [6], 33-mer deamidated at glutamine 72 and 33-mer deamidated at glutamine 65. For the same substance, the not cleaved entry is “no 30-mer identified” in data set [4]; “no detectable amounts of 32-mer, pyro-32-mer or 30-mer, only the intact 33-mer” in the data set on α-chymotrypsin [5]; “resistant to cleavage by intestinal peptidases” in the data set on intestinal peptidases [7].

Source of the values: PMC5361186 (Scientific Reports, 2017).
